# According to patent US9370515B2, “Mixed lineage kinase inhibitors and method of treatments” (CALIFIA BIO, INC., priority 2013, dated 2016):
# Biological target: MLK-3 (Homo sapiens, UniProt Q16584)
# Assay: Biochemical assay for the inhibition of kinase activity for MLK-3 (33P-ATP, HOTSPOT filter binding)
# Details: activated MLK-3 20 nM, ATP 50 μM, myelin basic protein 20 μM, 20 minutes room temperature
# Description: Biochemical Assay for the Inhibition of Kinase Activity for MLK-3: Myelin basic protein (20 μM final concentration) is dissolved in 20 mM Hepes (pH 7.5) containing […], […], 0.02% Brij35, 0.02 mg/ml BSA, 0.1 μM Na3VO4, 2 mM DTT, and 1% DMSO. Activated MLK-3 is added and mixed (20 nM final concentration), and inhibitors are added in DMSO. ^33P-ATP (specific activity 500 μCi/μL) is delivered into the reaction mixture to initiate the reaction (ATP concentration is 50 μM) and the mixture is incubated at room temperature for 20 minutes. % Activity is determined using a proprietary HOTSPOT™ microfluidic filter binding technology. See, Expert Opin. Drug Discov. 2008 June; 3(6): 607-621.
# Sequence of MLK-3 (Q16584 whole entry): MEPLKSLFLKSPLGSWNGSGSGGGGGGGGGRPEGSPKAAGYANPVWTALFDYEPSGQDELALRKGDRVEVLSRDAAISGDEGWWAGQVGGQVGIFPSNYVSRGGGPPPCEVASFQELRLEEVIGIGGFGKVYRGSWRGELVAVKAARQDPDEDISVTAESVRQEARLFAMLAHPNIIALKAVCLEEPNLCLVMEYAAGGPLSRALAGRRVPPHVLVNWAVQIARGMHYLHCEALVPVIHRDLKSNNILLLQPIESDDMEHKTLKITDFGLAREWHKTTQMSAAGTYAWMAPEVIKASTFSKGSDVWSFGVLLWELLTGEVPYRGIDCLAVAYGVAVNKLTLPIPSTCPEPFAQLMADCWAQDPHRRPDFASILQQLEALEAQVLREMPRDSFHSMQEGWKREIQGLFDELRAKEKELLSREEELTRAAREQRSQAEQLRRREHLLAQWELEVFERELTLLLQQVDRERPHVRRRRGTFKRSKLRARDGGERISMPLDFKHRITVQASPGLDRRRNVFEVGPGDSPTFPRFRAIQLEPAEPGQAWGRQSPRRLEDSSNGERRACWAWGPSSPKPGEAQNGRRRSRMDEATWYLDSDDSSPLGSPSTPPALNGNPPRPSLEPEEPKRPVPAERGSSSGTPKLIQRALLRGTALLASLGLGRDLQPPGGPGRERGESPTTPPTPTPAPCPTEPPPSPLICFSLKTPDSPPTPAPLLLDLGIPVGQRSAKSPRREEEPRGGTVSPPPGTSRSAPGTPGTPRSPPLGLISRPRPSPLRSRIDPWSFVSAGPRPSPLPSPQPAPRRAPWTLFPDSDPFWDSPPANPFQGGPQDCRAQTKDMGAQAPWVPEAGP
row,Structure (SMILES),IC50 [nM]
1,"COc1cc(Nc2ccc3ncc(-c4cc5ccccc5s4)n3n2)ccn1 [Compound 34, 3-(benzo[b]thiophen-2-yl)-N-(2-methoxypyridin-4-yl)imidazo[1,2-b]pyridazin-6-amine]",< 5000
2,"CN1CCN(Cc2ccc(-c3ccc4ncc(-c5cc6ccccc6s5)n4n3)cc2)CC1 [Compound 39, 3-(benzo[b]thiophen-2-yl)-6-(4-((4-methylpiperazin-1-yl)methyl)phenyl)imidazo[1,2-b]pyridazine]",< 5000
3,"CN1CCN(Cc2cccc(-c3ccc4ncc(-c5cc6ccccc6s5)n4n3)c2)CC1 [Compound 40, 3-(benzo[b]thiophen-2-yl)-6-(3-((4-methylpiperazin-1-yl)methyl)phenyl)imidazo[1,2-b]pyridazine]",< 5000
4,"O=c1cc(Nc2ccc3ncc(-c4cc5ccccc5s4)n3n2)cc[nH]1 [Compound 41, 4-(3-(benzo[b]thiophen-2-yl)imidazo[1,2-b]pyridazin-6-ylamino)pyridin-2-ol]",500 to 1000
5,"COc1ccc(Nc2ccc3ncc(-c4cc5ccccc5s4)n3n2)cc1C(=O)O [Compound 43, 5-(3-(benzo[b]thiophen-2-yl)imidazo[1,2-b]pyridazin-6-ylamino)-2-methoxybenzoic acid]",500 to 1000
6,"O=C(O)c1cc(Nc2ccc3ncc(-c4cc5ccccc5s4)n3n2)ccc1OCCCO [Compound 44, 5-(3-(benzo[b]thiophen-2-yl)imidazo[1,2-b]pyridazin-6-ylamino)-2-(3-hydroxypropoxy)benzoic acid]",500 to 1000
7,"O=c1cccc(Nc2ccc3ncc(-c4cc5ccccc5s4)n3n2)[nH]1 [Compound 45, 6-(3-(benzo[b]thiophen-2-yl)imidazo[1,2-b]pyridazin-6-ylamino)pyridin-2-ol]",< 5000
8,"c1cc2cc(-c3ccc4ncc(-c5ccc6[nH]ccc6c5)n4n3)ccc2[nH]1 [Compound 50, 3,6-di(1H-indol-5-yl)imidazo[1,2-b]pyridazine]",100 to 500
9,"COc1ccc(Nc2ccc3ncc(-c4ccc5[nH]ccc5c4)n3n2)cc1OC [Compound 53, 3-(1H-indol-5-yl)-N-(3,4-dimethoxyphenyl)imidazo[1,2-b]pyridazin-6-amine]",500 to 1000
10,"COc1cccc(Nc2ccc3ncc(-c4ccc5[nH]ccc5c4)n3n2)c1 [Compound 54, 3-(1H-indol-5-yl)-N-(3-methoxyphenyl)imidazo[1,2-b]pyridazin-6-amine]",< 5000
11,"CN1CCN(c2cccc(Nc3ccc4ncc(-c5ccc6[nH]ccc6c5)n4n3)c2)CC1 [Compound 56, 3-(1H-indol-5-yl)-N-(3-(4-methylpiperazin-1-yl)phenyl)imidazo[1,2-b]pyridazin-6-amine]",500 to 1000
12,"COC(=O)c1cccc(Nc2ccc3ncc(-c4ccc5[nH]ccc5c4)n3n2)c1 [Compound 61, methyl 3-(3-(1H-indol-5-yl)imidazo[1,2-b]pyridazin-6-ylamino)benzoate]",< 5000
13,"COc1ccc(Nc2ccc3ncc(-c4ccc5ccccc5c4)n3n2)cc1OC [Compound 62, N-(3,4-dimethoxyphenyl)-3-(naphthalen-3-yl)imidazo[1,2-b]pyridazin-6-amine]",< 5000
14,"O=C(O)c1cccc(Nc2ccc3ncc(-c4ccc5ccccc5c4)n3n2)c1 [Compound 63, 3-(3-(naphthalen-3-yl)imidazo[1,2-b]pyridazin-6-ylamino)benzoic acid]",100 to 500
15,"COc1cc2cc(-c3cnc4ccc(-c5ccc6[nH]ccc6c5)nn34)sc2cc1OC [Compound 69, 6-(1H-indol-5-yl)-3-(5,6-dimethoxybenzo[b]thiophen-2-yl)imidazo[1,2-b]pyridazine]",< 100
16,"COc1cc2cc(-c3cnc4ccc(Nc5ccc(OCCCO)c(OC)c5)nn34)sc2cc1OC [Compound 70, 3-(4-(3-(5,6-dimethoxybenzo[b]thiophen-2-yl)imidazo[1,2-b]pyridazin-6-ylamino)-2-methoxyphenoxy)propan-1-ol]",< 100
17,"COc1cc2cc(-c3cnc4ccc(Nc5cccc(C(=O)O)c5)nn34)sc2cc1OC [Compound 71, 3-(3-(5,6-dimethoxybenzo[b]thiophen-2-yl)imidazo[1,2-b]pyridazin-6-ylamino)benzoic acid]",< 100
18,"COc1ccc2cc(-c3cnc4ccc(Nc5ccc(OC)c(OC)c5)nn34)sc2c1 [Compound 72, 3-(6-methoxybenzo[b]thiophen-2-yl)-N-(3,4-dimethoxyphenyl)imidazo[1,2-b]pyridazin-6-amine]",100 to 500
19,"COc1cc2cc(-c3cnc4ccc(-c5ccc(CN6CCN(C)CC6)cc5)nn34)sc2cc1OC [Compound 73, 3-(5,6-dimethoxybenzo[b]thiophen-2-yl)-6-(4-((4-methylpiperazin-1-yl)methyl)phenyl)imidazo[1,2-b]pyridazine]",500 to 1000
20,"COc1cc2cc(-c3cnc4ccc(-c5cccc(CN6CCN(C)CC6)c5)nn34)sc2cc1OC [Compound 74, 3-(5,6-dimethoxybenzo[b]thiophen-2-yl)-6-(3-((4-methylpiperazin-1-yl)methyl)phenyl)imidazo[1,2-b]pyridazine]",500 to 1000

row,Structure (SMILES),IC50 [nM]
1,"COc1ccc(N(C)c2ccc3ncc(-c4cc5cc(OC)c(OC)cc5s4)n3n2)cc1OC [Compound 75, 3-(5,6-dimethoxybenzo[b]thiophen-2-yl)-N-(3,4-dimethoxyphenyl)-N-methylimidazo[1,2-b]pyridazin-6-amine]",100 to 500
2,"COc1ccc(Nc2ccc3ncc(-c4cc5c(OC)c(OC)c(OC)cc5s4)n3n2)cc1OC [Compound 76, 3-(4,5,6-trimethoxybenzo[b]thiophen-2-yl)-N-(3,4-dimethoxyphenyl)imidazo[1,2-b]pyridazin-6-amine]",< 5000
3,Oc1cccc2cc(-c3cnc4ccc(N[C@H]5CC[C@H](O)CC5)nn34)sc12 [Compound 77],< 100
4,"COc1ccc(Nc2ccc3ncc(-c4cc5cccc(OC(C)=O)c5s4)n3n2)cc1OC [Compound 78, 2-(6-(3,4-dimethoxyphenylamino)imidazo[1,2-b]pyridazin-3-yl)benzo[b]thiophen-7-yl acetate]",100 to 500
5,"COc1ccc(Nc2ccc3ncc(-c4cc5cccc(O)c5s4)n3n2)cc1OC [Compound 79, 2-(6-(3,4-dimethoxyphenylamino)imidazo[1,2-b]pyridazin-3-yl)benzo[b]thiophen-7-ol]",< 100
6,"COc1ccc(Nc2ccc3ncc(-c4cc5cccc(OC(C)C)c5s4)n3n2)cc1OC [Compound 80, 3-(7-isopropoxybenzo[b]thiophen-2-yl)-N-(3,4-dimethoxyphenyl)imidazo[1,2-b]pyridazin-6-amine]",100 to 500
7,"CCCOc1cccc2cc(-c3cnc4ccc(Nc5ccc(OC)c(OC)c5)nn34)sc12 [Compound 81, N-(3,4-dimethoxyphenyl)-3-(7-propoxybenzo[b]thiophen-2-yl)imidazo[1,2-b]pyridazin-6-amine]",500 to 1000
8,"COc1ccc(Nc2ccc3ncc(-c4cc5cc(OC)c(OC)c(OC)c5s4)n3n2)cc1OC [Compound 83, 3-(5,6,7-trimethoxybenzo[b]thiophen-2-yl)-N-(3,4-dimethoxyphenyl)imidazo[1,2-b]pyridazin-6-amine]",< 5000
9,"COc1ccc(Nc2ccc3ncc(-c4ccc(CO)s4)n3n2)cc1OC [Compound 84, (5-(6-(3,4-dimethoxyphenylamino)imidazo[1,2-b]pyridazin-3-yl)thiophen-2-yl)methanol]",< 5000
10,"COc1ccc2[nH]c(-c3cnc4ccc(N[C@H]5CC[C@H](O)CC5)nn34)cc2c1 [Compound 85, trans-4-(3-(5-methoxy-1H-indol-2-yl)imidazo[1,2-b]pyridazin-6-ylamino)cyclohexanol]",< 100
11,"COc1ccc2cc(-c3cnc4ccc(N[C@H]5CC[C@H](O)CC5)nn34)[nH]c2c1 [Compound 86, trans-4-(3-(6-methoxy-1H-indol-2-yl)imidazo[1,2-b]pyridazin-6-ylamino)cyclohexanol]",100 to 500
12,"COc1cccc2cc(-c3cnc4ccc(N[C@H]5CC[C@H](O)CC5)nn34)[nH]c12 [Compound 87, trans-4-(3-(7-methoxy-1H-indol-2-yl)imidazo[1,2-b]pyridazin-6-ylamino)cyclohexanol]",< 100
13,"O[C@H]1CC[C@H](Nc2ccc3ncc(-c4cc5ccccc5[nH]4)n3n2)CC1 [Compound 88, trans-4-(3-(1H-indol-2-yl)imidazo[1,2-b]pyridazin-6-ylamino)cyclohexanol]",100 to 500
14,"O[C@H]1CC[C@H](Nc2ccc3ncc(-c4csc5ccccc45)n3n2)CC1 [Compound 90, trans-4-(3-(benzo[b]thiophen-3-yl)imidazo[1,2-b]pyridazin-6-ylamino)cyclohexanol]",500 to 1000
15,"Oc1cccc(-c2cnc3ccc(N[C@H]4CC[C@H](O)CC4)nn23)c1 [Compound 101, trans-3-(6-(4-hydroxycyclohexylamino)imidazo[1,2-b]pyridazin-3-yl)phenol]",< 5000
16,"Oc1ccc(-c2cnc3ccc(N[C@H]4CC[C@H](O)CC4)nn23)cc1 [Compound 102, trans-4-(6-(4-hydroxycyclohexylamino)imidazo[1,2-b]pyridazin-3-yl)phenol]",< 5000
17,"CCCN(C)c1ccc2ncc(-c3cc4ccccc4s3)n2n1 [Compound 107, 3-(benzo[b]thiophen-2-yl)-N-methyl-N-propylimidazo[1,2-b]pyridazin-6-amine]",< 5000
18,"OCCNc1ccc2ncc(-c3cc4ccccc4s3)n2n1 [Compound 108, 2-(3-(benzo[b]thiophen-2-yl)imidazo[1,2-b]pyridazin-6-ylamino)ethanol]",500 to 1000
19,"OCCCNc1ccc2ncc(-c3cc4ccccc4s3)n2n1 [Compound 109, 3-(3-(benzo[b]thiophen-2-yl)imidazo[1,2-b]pyridazin-6-ylamino)propan-1-ol]",100 to 500
